# Experimental data reported in PubChem BioAssay (NCI).
# “And” between values parts separate entries of the source, which are not always exact repeats. Equal values may be shown once.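 Dose response: 5 concentrations. Exposure: 48 h. Format: 96-well plates. Endpoint: linear interpolation; highest concentration if not reached. GI50: concentration for 50% inhibition of growth. TGI marks complete inhibition of growth.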
# How the values were obtained:
# Test in all cases: NCI tumour cell line growth inhibition, 48 h
# [1] = tested on: SK-MEL-5 melanoma
# [2] = tested on: MDA-MB-231 breast
# [3] = tested on: DMS 114 small cell lung
# [4] = tested on: SNB-78 CNS
# [5] = tested on: KM20L2 colon
# [6] = tested on: M19-MEL melanoma
# [7] = tested on: HCC-2998 colon
# [8] = tested on: MDA-MB-435
# [9] = tested on: DLD-1 colon
# [10] = tested on: BT-549 breast
Compound,TGI [1],GI50 [2],TGI [2],TGI [3],TGI [4],TGI [5],TGI [6],TGI [7],GI50 [8],TGI [8],TGI [9],GI50 [10],TGI [10],GI50 [1],GI50 [4],GI50 [6],GI50 [7],GI50 [9]
NC1=C(Br)C(=O)c2ncccc2C1=O,1.46 µM,2.01 µM,8.8 µM,0.313 µM,2.48 µM,3.54 µM,0.298 µM,2.61 µM,0.168 µM,0.313 µM,1.98 µM,1.16 µM,2.57 µM,–,–,–,–,–
O=c1c2cc(Br)ccc2nc(-c2ccccc2Cl)n1NCC1(O)OCC(O)C(O)C1O (centres undefined),> 100 µM,–,–,> 100 µM,> 100 µM,> 100 µM,> 100 µM,–,–,–,–,–,–,–,–,–,–,–
CN(C)CCNC(=O)c1ccc(C(=O)NCCN(C)C)c2nc3ccccc3cc12,4.34 µM,–,–,2.16 µM,12.7 µM,10.3 µM,2.35 µM,2.98 µM,–,–,5.28 µM,–,–,–,–,–,–,–
O=C(O)C12C3C4C1C1C2C3C1(Br)C41OCCO1 (centres undefined),> 100 µM,–,–,> 100 µM,> 100 µM,> 100 µM,> 100 µM,> 100 µM,–,–,> 100 µM,–,–,–,–,–,–,–
COc1ccc(C2=NN(C(=O)COc3ccc(Cl)cc3)C(O)(c3ccc(Cl)cc3)C2)cc1 (centres undefined),–,–,–,–,> 100 µM,> 100 µM,–,> 100 µM,–,–,> 100 µM,–,–,–,–,–,–,–
COc1cc(Cn2c(=S)ss/c2=N\C(=S)N(C)C)cc(OC)c1OC,56.4 µM,–,> 47.4 µM,12.8 µM,> 100 µM,> 100 µM,> 66.2 µM,> 95.4 µM,–,15.8 µM,> 100 µM,–,> 100 µM,–,–,–,–,–
CC(/C(=N/NC(=O)C(N)=O)c1c(Cl)ccc(Cl)c1O)C1(O)C(=O)Nc2ccccc21 (centres undefined),> 100 µM,–,–,> 100 µM,> 100 µM,> 100 µM,> 100 µM,> 100 µM,–,–,> 100 µM,–,–,–,–,–,–,–
O/N=C/c1cc2c(cc1Br)OCO2,> 100 µM,–,–,–,> 100 µM,> 100 µM,> 100 µM,> 100 µM,–,–,> 100 µM,–,–,–,–,–,–,–
O=C1C=C[C@@]23C[C@@H](Nc4c(O)c5c6c(c42)=NCCC=6C=N5)SC3=C1,3.38 µM,1.62 µM,3.35 µM,–,12.3 µM,10.7 µM,3.24 µM,13.6 µM,–,2.98 µM,3.22 µM,–,–,1.93 µM,3.24 µM,1.71 µM,4.39 µM,1.74 µM
CS(=O)(=O)OCCn1cnc2nc(NC(=O)c3ccccc3)[nH]c(=O)c21,> 100 µM,–,–,> 100 µM,> 100 µM,> 100 µM,> 100 µM,–,–,–,> 100 µM,–,–,–,–,–,–,–
Nc1ncnc2c1ncn2CC(O)C(=O)O (centres undefined),> 100 µM,–,> 100 µM,> 100 µM,–,> 100 µM,> 100 µM,> 100 µM,–,> 100 µM,> 100 µM,–,> 100 µM,–,–,–,–,–
Cc1cccc(NC(=O)c2cc3cc(N=Nc4ccccc4Cl)ccc3oc2=O)c1,47.1 µM,–,–,66.8 µM,> 100 µM,> 100 µM,> 100 µM,70.4 µM,–,–,> 100 µM,–,–,–,–,–,–,–
CC(=O)Nc1ccc(/C=N\N2C(=O)c3ccccc3C2=O)cc1,> 100 µM,–,–,> 100 µM,> 100 µM,> 100 µM,> 100 µM,> 100 µM,–,–,> 100 µM,–,–,–,–,–,–,–
CCCCCCCCCCC(O)[C@H]1CCC(C2CC[C@H]([C@H](O)CCCCCCCCCCC(O)CC3=CC(C)OC3=O)O2)O1 (some centres undefined),2.47 µM and 1.74 µM,–,4.23 µM,3.01 µM,8.16 µM,19.4 µM,8.92 µM,15 µM,–,–,> 100 µM,–,–,< 0.01 µM,–,–,–,–
CCCCCCCCC(=O)N(C)C1C2CN3CCC(O2)C13 (centres undefined),> 100 µM,–,–,> 100 µM,> 100 µM,> 100 µM,> 100 µM,> 100 µM,–,–,> 100 µM,–,–,–,–,–,–,–
CCOC(=O)C1=C(NNC(=O)Cc2ccccc2)CSC1=Nc1ccccc1,> 100 µM,–,–,–,> 100 µM,> 100 µM,> 100 µM,> 100 µM,–,–,> 100 µM,–,–,–,–,–,–,–
